Key:
corn = assay: Test B pre/postemergence corn; type: in vivo, Zea mays
In short: (§1)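 Test chemicals in a non-phytotoxic solvent mixture with surfactant were sprayed preemergence onto planted seeds and postemergence onto plants 2 to 18 cm tall (1- to 4-leaf stage). After twelve to sixteen days in a greenhouse, injury was visually rated against untreated controls from 0 (no effect) to 10 (complete control).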

duck salad = assay: Test B flood test duck salad; type: in vivo, Heteranthera limosa
In short: (§2)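 Read-out is a visual response score from 0 (no effect) to 10 (complete control), assigned by comparison with untreated controls. Treatment was applied at the 2-leaf stage, and plants stayed in the greenhouse for twelve to sixteen days before scoring.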

purple nutsedge = assay: Test B pre/postemergence purple nutsedge; type: in vivo, Cyperus rotundus
In short: as §1

giant foxtail = assay: Test B pre/postemergence giant foxtail; type: in vivo, Setaria faberii
In short: as §1

soybean = assay: Test B pre/postemergence soybean; type: in vivo, Glycine max
In short: as §1

wild oat = assay: Test B pre/postemergence wild oat; type: in vivo, Avena fatua
In short: as §1

cocklebur = assay: Test B pre/postemergence cocklebur; type: in vivo, Xanthium strumarium
In short: as §1

rice = assay: Test B flood test rice; type: in vivo, Oryza sativa
In short: as §2

rape = assay: Test B pre/postemergence rape; type: in vivo, Brassica napus
In short: as §1

smallflower flatsedge = assay: Test B flood test smallflower flatsedge; type: in vivo, Cyperus difformis
In short: as §2

morningglory = assay: Test B pre/postemergence morningglory; type: in vivo, Ipomoea hederacea
In short: as §1

velvetleaf = assay: Test B pre/postemergence velvetleaf; type: in vivo, Abutilon theophrasti
In short: as §1

crabgrass = assay: Test B pre/postemergence crabgrass; type: in vivo, Digitaria sanguinalis
In short: as §1

pigweed = assay: Test B pre/postemergence pigweed; type: in vivo, Amaranthus retroflexus
In short: as §1

wheat = assay: Test B pre/postemergence wheat; type: in vivo, Triticum aestivum
In short: as §1

[1] = Postemergence, Rate 62 g/ha, scale 0 to 10, 0 is no effect, 10 is complete control
[2] = Postemergence, Rate 125 g/ha, scale of 0 to 10 where 0 is no effect and 10 is complete control
[3] = Postemergence, Rate 250 g/ha, scale of 0 to 10, 0 is no effect, 10 is complete control
[4] = Postemergence, Rate 500 g/ha, scale of 0 to 10 where 0 is no effect and 10 is complete control
[5] = Preemergence, Rate 62 g/ha, scale of 0 to 10 where 0 is no effect and 10 is complete control
[6] = Preemergence, Rate 125 g/ha, scale of 0 to 10 where 0 is no effect and 10 is complete control
[7] = Preemergence, Rate 500 g/ha, scale of 0 to 10 where 0 is no effect and 10 is complete control
[8] = Rate 62 g/ha, flood test species, Pre-emergence, visual evaluation after twelve to sixteen days
[9] = Rate 125 g/ha, under heading Pre-emergence, flood test species, visual evaluation after twelve to sixteen days
[10] = Rate 250 g/ha, Pre-emergence (flood test species), scale 0 to 10, 0 is no effect, 10 is complete control
[11] = Rate 500 g/ha, Pre-emergence section of Table B, 0 to 10 scale (0 no effect, 10 complete control)
[12] = Preemergence, Rate 250 g/ha, scale 0 to 10 (0 no effect, 10 complete control)

CC(C)N(C(=O)n1oc(=O)n(CCC(=O)N(C)C)c1=O)c1ccc(F)cc1 [Compound 638]
10: Giant foxtail plant response rating (giant foxtail; [5]) | Giant foxtail plant response rating (giant foxtail; [6]) | Plant response rating, Giant foxtail (giant foxtail; [12]) | Plant response rating, Giant foxtail (giant foxtail; [7]) | Plant response rating, Wild oats (wild oat; [12]) | Plant response rating, Wild oats (wild oat; [7]) | Plant response rating, Rape (rape; [7]) | Plant response rating, Velvetleaf (velvetleaf; [7]) | Plant response rating, Crabgrass (crabgrass; [7]) | Redroot pigweed plant response rating (pigweed; [6]) | Plant response rating, Redroot pigweed (pigweed; [12]) | Plant response rating, Redroot pigweed (pigweed; [7])
4: Wild oats plant response rating (wild oat; [5]) | Wild oats plant response rating (wild oat; [6]) | Plant response rating, Cocklebur (cocklebur; [4]) | Plant response rating, Cocklebur (cocklebur; [12]) | Velvetleaf plant response rating (velvetleaf; [3])
2: Plant response rating, Corn (corn; [2]) | Corn plant response rating (corn; [3]) | Cocklebur plant response rating (cocklebur; [3]) | Plant response rating, Morningglory (morningglory; [2]) | Plant response rating, Morningglory (morningglory; [12]) | Plant response rating, Velvetleaf (velvetleaf; [2]) | Plant response rating, Crabgrass (crabgrass; [1])
6: Plant response rating, Giant foxtail (giant foxtail; [2])
3: Plant response rating, Corn (corn; [4]) | Soybean plant response rating (soybean; [3]) | Plant response rating, Soybean (soybean; [12]) | Plant response rating, Soybean (soybean; [7]) | Morningglory plant response rating (morningglory; [3]) | Velvetleaf plant response rating (velvetleaf; [5]) | Wheat plant response rating (wheat; [3]) | Plant response rating, Wheat (wheat; [12])
8: Corn plant response rating (corn; [6]) | Plant response rating, Corn (corn; [7]) | Plant response rating, Nutsedge (purple nutsedge; [7]) | Giant foxtail plant response rating (giant foxtail; [3]) | Plant response rating, Giant foxtail (giant foxtail; [4]) | Plant response rating, Rape (rape; [12]) | Crabgrass plant response rating (crabgrass; [3])
5: Plant response rating, Nutsedge (purple nutsedge; [2]) | Nutsedge plant response rating (purple nutsedge; [6]) | Plant response rating, Nutsedge (purple nutsedge; [12]) | Plant response rating, Giant foxtail (giant foxtail; [1]) | Rape plant response rating (rape; [6]) | Velvetleaf plant response rating (velvetleaf; [6]) | Plant response rating, Velvetleaf (velvetleaf; [12]) | Plant response rating, Crabgrass (crabgrass; [2])
0: Plant response rating, Corn (corn; [1]) | Corn plant response rating (corn; [5]) | Plant response rating, Ducksalad (0 to 10 scale, 0 is no effect, 10 is complete control) (duck salad; [8]) | Ducksalad plant response rating (0 to 10 scale, 0 is no effect, 10 is complete control) (duck salad; [9]) | Ducksalad plant response rating (duck salad; [10]) | Ducksalad plant response rating (duck salad; [11]) | Plant response rating, Nutsedge (purple nutsedge; [1]) | Nutsedge plant response rating (purple nutsedge; [5]) | Soybean plant response rating (soybean; [5]) | Soybean plant response rating (soybean; [6]) | Plant response rating, Cocklebur (cocklebur; [1]) | Plant response rating, Cocklebur (cocklebur; [2]) | Cocklebur plant response rating (cocklebur; [5]) | Cocklebur plant response rating (cocklebur; [6]) | Plant response rating, Rice (0 to 10 scale, 0 is no effect, 10 is complete control) (rice; [8]) | Rice plant response rating (0 to 10 scale, 0 is no effect, 10 is complete control) (rice; [9]) | Rice plant response rating (rice; [10]) | Rice plant response rating (rice; [11]) | Plant response rating, Rape (rape; [1]) | Plant response rating, Rape (rape; [2]) | Rape plant response rating (rape; [3]) | Plant response rating, Rape (rape; [4]) | Rape plant response rating (rape; [5]) | Plant response rating, S. Flatsedge (0 to 10 scale, 0 is no effect, 10 is complete control) (smallflower flatsedge; [8]) | S. Flatsedge plant response rating (0 to 10 scale, 0 is no effect, 10 is complete control) (smallflower flatsedge; [9]) | S. Flatsedge plant response rating (smallflower flatsedge; [10]) | S. Flatsedge plant response rating (smallflower flatsedge; [11]) | Plant response rating, Morningglory (morningglory; [1]) | Morningglory plant response rating (morningglory; [5]) | Morningglory plant response rating (morningglory; [6]) | Plant response rating, Velvetleaf (velvetleaf; [1]) | Plant response rating, Redroot pigweed (pigweed; [1]) | Plant response rating, Redroot pigweed (pigweed; [2]) | Redroot pigweed plant response rating (pigweed; [3]) | Plant response rating, Wheat (wheat; [1]) | Plant response rating, Wheat (wheat; [2]) | Wheat plant response rating (wheat; [5]) | Wheat plant response rating (wheat; [6])
1: Plant response rating, Soybean (soybean; [1]) | Plant response rating, Soybean (soybean; [2]) | Plant response rating, Wild oats (wild oat; [1]) | Plant response rating, Wild oats (wild oat; [2]) | Wild oats plant response rating (wild oat; [3])
7: Plant response rating, Nutsedge (purple nutsedge; [4]) | Plant response rating, Morningglory (morningglory; [4]) | Plant response rating, Morningglory (morningglory; [7]) | Redroot pigweed plant response rating (pigweed; [5]) | Plant response rating, Wheat (wheat; [7])
9: Plant response rating, Cocklebur (cocklebur; [7]) | Plant response rating, Crabgrass (crabgrass; [4]) | Crabgrass plant response rating (crabgrass; [5]) | Crabgrass plant response rating (crabgrass; [6]) | Plant response rating, Crabgrass (crabgrass; [12])

From patent US6737383B1, “Herbicidal oxadiazolidines” (priority 1999, dated 2004)
